Measured values reported in patent publication US6391887B1, “3,4-Dihydroquinoline derivatives as nitrogen monoxide synthase (NOS) inhibitors” (Schering Aktiengesellschaft, priority 1998, dated 2002).

Biological target: bNOS (UniProt P29475)
Test: bNOS inhibition (method of Bredt and Snyder)
Assay type: biochemical
Excerpt: The NOS-inhibitory action of the compounds of Formula (I) and their physiologically compatible salts can be determined according to the methods by Bredt and Snyder in Proc. Natl. Acad. Sci. USA (1989) 86, 9030-9033.

Row | Compound | IC50
1 | NC1=Nc2cc(N3CCOCC3)ccc2C2CCCC12 (centres unmarked) [Example 21, 4-Amino-7-(4-morpholinyl)-2,3,3a,9b-tetrahydro-1H-cyclopenta[c]quinoline] | 1400 nM
2 | COC(=O)CCc1ccc2c(c1)N=C(N)C1CCCC21 (centres unmarked) [Example 22, 4-Amino-7-(methoxycarbonylethyl)-2,3,3a,9b-tetrahydro-1H-cyclopenta[c]quinoline] | 1100 nM
